Key:
[1] = clinical trials, oral administration to man: plasma pharmacokinetics; type: in vivo; conditions: human, oral compositions as described in Table 1, administered orally to man
Text: When taken during a migraine attack TMAX may be more variable and prolonged.

migraine with aura = test: single centre, double-blind, randomised, placebo controlled crossover study of prophylaxis of migraine in patients with migraine with aura; type: in vivo; conditions: 31 patients with migraine with aura, 20 or 40 mg po od, 12 week treatment period
Method: A single centre, double-blind, randomised, placebo controlled crossover study to evaluate the efficacy and tolerability of tonabersat in the prophylaxis of migraine in patients presenting with migraine with aura was conducted. Twelve week treatment period followed by a 4 week wash-out period before cross-over to 12 weeks treatment with the alternative trial medication. To investigate the efficacy of tonabersat compared to placebo in the reduction of the number of aura attacks and the number of migraine headache days in patients with migraine with aura. Following screening, patients were randomised to active or placebo treatment for 12 weeks. During the first two weeks of the treatment period, patients received treatment with tonabersat 20 mg (one tablet daily) or matching placebo. After two weeks, the dose was increased to tonabersat 40 mg per day (two tablets taken once daily [od]) with a similar increase in the number of placebo tablets taken. Depending on tolerability during the treatment period, the dose may have been reduced to 20 mg per day (or one placebo tablet) for the remainder of the treatment period. On completion of the first treatment period patients received placebo tablets (one tablet daily) for 4 weeks before starting the second treatment period when the alternative trial medication was administered. The design of the second period was the same as the first. […]

CC(=O)c1ccc2c(c1)[C@H](NC(=O)c1ccc(F)c(Cl)c1)[C@H](O)C(C)(C)O2 [tonabersat, cis-6-acetyl-4-(S)-(3-chloro-4-fluorobenzoylamino)-3,4-dihydro-2,2-dimethyl-2H-1-benzopyran-3-(S)-ol]
half-life ([1]; read-out: terminal elimination half life): 24 to 40 h
Tmax ([1]; read-out: time to maximum plasma concentration (TMAX)): 1 to 3 h
reduction in aura attacks compared to placebo (migraine with aura; p=0.01): 50%
reduction in migraine headache days compared to placebo (migraine with aura; p=0.08): 37.5%
